Tests used:
morningglory [1] = assay: Test A preemergence; type: in vivo, Ipomoea spp.; conditions: for Morningglory plant response rating: 500 g ai/ha
How it was run: (§1)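 Scoring: eye-based comparison with untreated controls, 0 for no effect through 100 for complete control, at about day 10. Treatments: directed soil spray preemergence; foliar spray postemergence on 2–10 cm plants at the one- to two-leaf stage. Medium: loam soil with sand.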

pigweed [2] = assay: Test A postemergence; type: in vivo, Amaranthus retroflexus; conditions: 0 to 100 scale where 0 is no effect and 100 is complete control
How it was run: as §1

pigweed [3] = assay: Test A preemergence; type: in vivo, Amaranthus retroflexus; conditions: for Pigweed plant response rating: 500 g ai/ha
How it was run: as §1

velvetleaf [4] = assay: Test A postemergence; type: in vivo, Abutilon theophrasti; conditions: 0 to 100 scale where 0 is no effect and 100 is complete control
How it was run: as §1

large (Lg) crabgrass [5] = assay: Test A postemergence; type: in vivo, Digitaria sanguinalis
How it was run: as §1

corn [6] = assay: Test A postemergence; type: in vivo, Zea mays
How it was run: as §1

velvetleaf [7] = assay: Test A preemergence; type: in vivo, Abutilon theophrasti; conditions: for Velvetleaf plant response rating: 500 g ai/ha
How it was run: as §1

ducksalad = assay: Test C flooded paddy test; type: in vivo, Heteranthera limosa; conditions: Flood, scale 0 to 100 (0 no effect, 100 complete control), 13 to 15 days
How it was run: (§2)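 Ratings were visual and made relative to untreated controls after 13 to 15 greenhouse days.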

sedge, umbrella [8] = assay: Test B flooded paddy test; type: in vivo, Cyperus difformis; conditions: Flood, 250 g ai/ha; 0 to 100 scale where 0 is no effect and 100 is complete control
How it was run: (§3)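 Plants at 2-leaf stage; pots flooded to 3 cm above soil and compound applied directly into paddy water, depth held throughout. After 13 to 15 days in greenhouse, visual rating versus controls on 0 (no effect) to 100 (complete control) scale.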

giant foxtail [9] = assay: Test A postemergence; type: in vivo, Setaria faberii; conditions: 0 to 100 scale where 0 is no effect and 100 is complete control
How it was run: as §1

corn [10] = assay: Test A preemergence; type: in vivo, Zea mays; conditions: for Corn plant response rating: 500 g ai/ha
How it was run: as §1

wheat [11] = assay: Test A preemergence; type: in vivo, Triticum aestivum; conditions: for Wheat plant response rating: 500 g ai/ha
How it was run: as §1

rice [12] = assay: Test C flooded paddy test; type: in vivo, Oryza sativa; conditions: Flood, scale 0 to 100 (0 no effect, 100 complete control), 13 to 15 days
How it was run: as §2

barnyardgrass [13] = assay: Test C flooded paddy test; type: in vivo, Echinochloa crus-galli; conditions: Flood, scale 0 to 100 (0 no effect, 100 complete control), 13 to 15 days
How it was run: as §2

morningglory [14] = assay: Test A postemergence; type: in vivo, Ipomoea spp.; conditions: 0 to 100 scale where 0 is no effect and 100 is complete control
How it was run: as §1

barnyardgrass [15] = assay: Test B flooded paddy test; type: in vivo, Echinochloa crus-galli; conditions: Flood, 250 g ai/ha; 0 to 100 scale where 0 is no effect and 100 is complete control
How it was run: as §3

barnyardgrass [16] = assay: Test A postemergence; type: in vivo, Echinochloa crus-galli
How it was run: as §1

wheat [17] = assay: Test A postemergence; type: in vivo, Triticum aestivum; conditions: 0 to 100 scale where 0 is no effect and 100 is complete control
How it was run: as §1

barnyardgrass [18] = assay: Test A preemergence; type: in vivo, Echinochloa crus-galli; conditions: for Barnyardgrass plant response rating: 500 g ai/ha
How it was run: as §1

giant foxtail [19] = assay: Test A preemergence; type: in vivo, Setaria faberii; conditions: for Foxtail, Giant plant response rating: 500 g ai/ha
How it was run: as §1

rice [20] = assay: Test B flooded paddy test; type: in vivo, Oryza sativa; conditions: Flood, 250 g ai/ha; 0 to 100 scale where 0 is no effect and 100 is complete control
How it was run: as §3

sedge, umbrella [21] = assay: Test C flooded paddy test; type: in vivo, Cyperus difformis; conditions: Flood, scale 0 to 100 (0 no effect, 100 complete control), 13 to 15 days
How it was run: as §2

large (Lg) crabgrass [22] = assay: Test A preemergence; type: in vivo, Digitaria sanguinalis; conditions: for Crabgrass, Large plant response rating: 500 g ai/ha
How it was run: as §1

Heteranthera limosa = assay: Test B flooded paddy test; type: in vivo; conditions: Flood, 250 g ai/ha; 0 to 100 scale where 0 is no effect and 100 is complete control
How it was run: as §3

[23] = 0 to 100 scale where 0 is no effect and 100 is complete control
[24] = 125 g ai/ha, 0 to 100 scale where 0 is no effect and 100 is complete control
[25] = 500 g ai/ha, 0 to 100 scale where 0 is no effect and 100 is complete control
[26] = 0 to 100 scale, 0 no effect, 100 complete control, approx. 10 days
[27] = 500 g ai/ha, 0 to 100 scale, 0 no effect, 100 complete control

CON=Cc1cccc(Oc2ncc(Cl)cn2)c1-n1cc(Br)cn1 [Compound 203]
90: Plant response rating, Pigweed (pigweed [2]; 500 g ai/ha) | Pigweed plant response rating (0 to 100 scale) (pigweed [3]; 125 g ai/ha) | Plant response rating, Velvetleaf (velvetleaf [4]; 500 g ai/ha) | Plant response rating, Sedge, Umbrella (sedge, umbrella [8]) | Foxtail, Giant plant response rating (0 to 100 scale) (giant foxtail [19]; 125 g ai/ha) | Plant response rating, Ducksalad (Heteranthera limosa)
85: Plant response rating, Sedge, Umbrella (sedge, umbrella [21]; 125 g ai/ha)
100: Pigweed plant response rating (pigweed [3]; [23]) | Foxtail, Giant plant response rating (giant foxtail [19]; [23]) | Crabgrass, Large plant response rating (0 to 100 scale) (large (Lg) crabgrass [22]; 125 g ai/ha) | Crabgrass, Large plant response rating (large (Lg) crabgrass [22]; [23])
80: Velvetleaf plant response rating (velvetleaf [4]; 125 g ai/ha) | Plant response rating, Crabgrass, Large (large (Lg) crabgrass [5]; [25]) | Plant response rating, Foxtail, Giant (giant foxtail [9]; 500 g ai/ha)
30: Corn plant response rating (corn [6]; [24]) | Velvetleaf plant response rating (0 to 100 scale) (velvetleaf [7]; 125 g ai/ha)
40: Velvetleaf plant response rating (velvetleaf [7]; [23]) | Plant response rating, Barnyardgrass (barnyardgrass [13]; 31 g ai/ha) | Barnyardgrass plant response rating (barnyardgrass [16]; [24]) | Barnyardgrass plant response rating (barnyardgrass [18]; [23])
50: Plant response rating, Corn (corn [6]; [25]) | Plant response rating, Ducksalad (ducksalad; 62 g ai/ha) | Plant response rating, Barnyardgrass (barnyardgrass [13]; 62 g ai/ha) | Plant response rating, Barnyardgrass (barnyardgrass [13]; 125 g ai/ha) | Plant response rating, Sedge, Umbrella (sedge, umbrella [21]; 31 g ai/ha)
60: Crabgrass, Large plant response rating (large (Lg) crabgrass [5]; [24])
20: Plant response rating, Rice (rice [12]; 62 g ai/ha) | Plant response rating, Rice (rice [12]; 125 g ai/ha) | Morningglory plant response rating (morningglory [14]; 125 g ai/ha) | Plant response rating, Wheat (wheat [17]; 500 g ai/ha)
10: Morningglory plant response rating (morningglory [1]; [23]) | Barnyardgrass plant response rating (0 to 100 scale, 0 is no effect, 100 is complete control) (barnyardgrass [18]; 125 g ai/ha) | Plant response rating, Rice (rice [20])
75: Plant response rating, Sedge, Umbrella (sedge, umbrella [21]; 62 g ai/ha)
70: Pigweed plant response rating (pigweed [2]; 125 g ai/ha) | Plant response rating, Ducksalad (ducksalad; 125 g ai/ha) | Foxtail, Giant plant response rating (giant foxtail [9]; 125 g ai/ha) | Plant response rating, Morningglory (morningglory [14]; 500 g ai/ha) | Plant response rating, Barnyardgrass (barnyardgrass [16]; [25])
0: Morningglory plant response rating (0 to 100 scale) (morningglory [1]; 125 g ai/ha) | Plant response rating, Ducksalad (ducksalad; 31 g ai/ha) | Corn plant response rating (0 to 100 scale) (corn [10]; 125 g ai/ha) | Corn plant response rating (corn [10]; [23]) | Wheat plant response rating (0 to 100 scale) (wheat [11]; 125 g ai/ha) | Wheat plant response rating (wheat [11]; [23]) | Plant response rating, Rice (rice [12]; 31 g ai/ha) | Plant response rating, Barnyardgrass (barnyardgrass [15]) | Wheat plant response rating (wheat [17]; 125 g ai/ha)

FC(F)c1cnn(-c2ccccc2Oc2ncc(Br)cn2)c1 [Compound 81]
70: Barnyardgrass plant response rating (barnyardgrass [18]; [26]) | Plant response rating, Sedge, Umbrella (sedge, umbrella [21]; 125 g ai/ha)
100: Plant response rating, Pigweed (pigweed [2]; 125 g ai/ha) | Plant response rating, Pigweed (pigweed [2]; 500 g ai/ha) | Plant response rating, Velvetleaf (velvetleaf [4]; 125 g ai/ha) | Plant response rating, Velvetleaf (velvetleaf [4]; 500 g ai/ha) | Velvetleaf plant response rating (velvetleaf [7]; [26]) | Plant response rating, Morningglory (morningglory [14]; 500 g ai/ha) | Plant response rating, Barnyardgrass (barnyardgrass [16]; [27]) | Foxtail, Giant plant response rating (giant foxtail [19]; [26]) | Crabgrass, Large plant response rating (large (Lg) crabgrass [22]; [26])
50: Plant response rating, Corn (corn [6]; [24]) | Plant response rating, Velvetleaf (velvetleaf [7]; [24]) | Plant response rating, Foxtail, Giant (giant foxtail [9]; 125 g ai/ha) | Plant response rating, Morningglory (morningglory [14]; 125 g ai/ha) | Plant response rating, Barnyardgrass (barnyardgrass [16]; [24]) | Plant response rating, Sedge, Umbrella (sedge, umbrella [21]; 62 g ai/ha)
90: Plant response rating, Crabgrass, Large (large (Lg) crabgrass [5]; [27]) | Plant response rating, Ducksalad (ducksalad; 250 g ai/ha) | Plant response rating, Foxtail, Giant (giant foxtail [9]; 500 g ai/ha) | Plant response rating, Sedge, Umbrella (sedge, umbrella [21]; 250 g ai/ha) | Plant response rating, Crabgrass, Large (large (Lg) crabgrass [22]; [24]) | Plant response rating, Ducksalad (Heteranthera limosa)
80: Plant response rating, Sedge, Umbrella (sedge, umbrella [8]) | Plant response rating, Foxtail, Giant (giant foxtail [19]; [24])
10: Corn plant response rating (corn [10]; [26]) | Plant response rating, Wheat (wheat [11]; [24]) | Wheat plant response rating (wheat [11]; [26]) | Plant response rating, Wheat (wheat [17]; 125 g ai/ha)
30: Plant response rating, Corn (corn [6]; [27]) | Plant response rating, Ducksalad (ducksalad; 31 g ai/ha)
60: Morningglory plant response rating (morningglory [1]; [26]) | Plant response rating, Ducksalad (ducksalad; 125 g ai/ha) | Plant response rating, Wheat (wheat [17]; 500 g ai/ha)
0: Plant response rating, Morningglory (morningglory [1]; [24]) | Plant response rating, Pigweed (pigweed [3]; [24]) | Pigweed plant response rating (pigweed [3]; [26]) | Plant response rating, Corn (corn [10]; [24]) | Plant response rating, Rice (rice [12]; 31 g ai/ha) | Plant response rating, Rice (rice [12]; 62 g ai/ha) | Plant response rating, Rice (rice [12]; 125 g ai/ha) | Plant response rating, Rice (rice [12]; 250 g ai/ha) | Plant response rating, Barnyardgrass (barnyardgrass [13]; 31 g ai/ha) | Plant response rating, Barnyardgrass (barnyardgrass [13]; 62 g ai/ha) | Plant response rating, Barnyardgrass (barnyardgrass [13]; 125 g ai/ha) | Plant response rating, Barnyardgrass (barnyardgrass [13]; 250 g ai/ha) | Plant response rating, Barnyardgrass (barnyardgrass [15]) | Plant response rating, Barnyardgrass (barnyardgrass [18]; [24]) | Plant response rating, Rice (rice [20]) | Plant response rating, Sedge, Umbrella (sedge, umbrella [21]; 31 g ai/ha)
40: Plant response rating, Crabgrass, Large (large (Lg) crabgrass [5]; [24]) | Plant response rating, Ducksalad (ducksalad; 62 g ai/ha)

— patent US9695155B2, “Herbicidal substituted pyrimidinyloxy benzene compounds” (E. I. DU PONT DE NEMOURS AND COMPANY, priority 2013, dated 2017)
